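Growth conditions: 96-well plates. Treatment: test compound, 48 hours, 5 concentrations. Analysis: linear interpolation between bracketing concentrations; unreached endpoints set to highest concentration. GI50 = concentration required for 50% inhibition of growth. TGI denotes the concentration required for complete inhibition of growth.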
Assays:
Assay in all cases: NCI anticancer screen, dose series, 48 h
SK-MEL-28 melanoma = system: SK-MEL-28 melanoma
HL-60(TB) leukemia = system: HL-60(TB) leukemia
SK-MEL-2 melanoma = system: SK-MEL-2 melanoma
HT29 colon = system: HT29 colon
NCI-H23 lung = system: NCI-H23 lung
UO-31 renal = system: UO-31 renal
SK-OV-3 ovarian = system: SK-OV-3 ovarian
CCRF-CEM leukemia = system: CCRF-CEM leukemia
SF-268 CNS = system: SF-268 CNS
MOLT-4 leukemia = system: MOLT-4 leukemia
MDA-MB-231 breast = system: MDA-MB-231 breast
PC-3 prostate = system: PC-3 prostate
RXF 393 renal = system: RXF 393 renal
MALME-3M melanoma = system: MALME-3M melanoma
HOP-92 NSCLC = system: HOP-92 NSCLC
A498 renal = system: A498 renal
MDA-MB-435 = system: MDA-MB-435
NCI-H226 lung = system: NCI-H226 lung
OVCAR-5 ovarian = system: OVCAR-5 ovarian
EKVX NSCLC = system: EKVX NSCLC
DU-145 prostate = system: DU-145 prostate
SF-295 CNS = system: SF-295 CNS
MCF7 breast = system: MCF7 breast
SNB-75 CNS = system: SNB-75 CNS
SN12C renal = system: SN12C renal
UACC-62 melanoma = system: UACC-62 melanoma
KM12 colon = system: KM12 colon
NCI-H460 lung = system: NCI-H460 lung
COLO 205 colon = system: COLO 205 colon
SR leukemia = system: SR leukemia
M14 melanoma = system: M14 melanoma
A549 NSCLC = system: A549 NSCLC
BT-549 breast = system: BT-549 breast
IGROV1 ovarian = system: IGROV1 ovarian
ACHN renal = system: ACHN renal
HCT-15 colon = system: HCT-15 colon
HCC-2998 colon = system: HCC-2998 colon
OVCAR-4 ovarian = system: OVCAR-4 ovarian
NCI-H522 lung = system: NCI-H522 lung
T-47D breast = system: T-47D breast
SF-539 CNS = system: SF-539 CNS
SNB-19 CNS = system: SNB-19 CNS
OVCAR-3 ovarian = system: OVCAR-3 ovarian
SK-MEL-5 melanoma = system: SK-MEL-5 melanoma
LOX IMVI melanoma = system: LOX IMVI melanoma
TK-10 renal = system: TK-10 renal
SW-620 colon = system: SW-620 colon
CAKI-1 renal = system: CAKI-1 renal
UACC-257 melanoma = system: UACC-257 melanoma

Question: How did the GI50 (SK-MEL-28 melanoma) turn out when `COc1cc(C2CC(c3cccc(Nc4ccncc4)c3)=NN2c2ccccc2)cc(OC)c1OC` (stereo not drawn) was run?
Answer: The GI50 was 1770 nM.

Question: What about the TGI (SK-MEL-28 melanoma) of the same molecule?
Answer: The TGI was 3300 nM.

Question: What about the GI50 (HL-60(TB) leukemia) of the same molecule?
Answer: The GI50 was 1720 nM.

Question: What about the TGI (HL-60(TB) leukemia) of the same molecule?
Answer: Its TGI is 3650 nM.

Question: What about the GI50 (SK-MEL-2 melanoma) of the same molecule?
Answer: Its GI50 is 1960 nM.

Question: And the TGI (SK-MEL-2 melanoma)?
Answer: The TGI was 3800 nM.

Question: What about the GI50 (HT29 colon) of the same molecule?
Answer: Its GI50 is 1930 nM.

Question: What about the TGI (HT29 colon) of the same molecule?
Answer: Its TGI is 4530 nM.

Question: And the GI50 (NCI-H23 lung)?
Answer: The GI50 was 1940 nM.

Question: What about the TGI (NCI-H23 lung) of the same molecule?
Answer: Its TGI is 3870 nM.

Question: What about the GI50 (UO-31 renal) of the same molecule?
Answer: Its GI50 is 1420 nM.

Question: And the TGI (UO-31 renal)?
Answer: The TGI was 2810 nM.

Question: And the GI50 (SK-OV-3 ovarian)?
Answer: Its GI50 is 1780 nM.

Question: And the TGI (SK-OV-3 ovarian)?
Answer: The TGI was 3500 nM.

Question: And the GI50 (CCRF-CEM leukemia)?
Answer: Its GI50 is 2930 nM.

Question: And the TGI (CCRF-CEM leukemia)?
Answer: The TGI was 8530 nM.

Question: What about the GI50 (SF-268 CNS) of the same molecule?
Answer: The GI50 was 1700 nM.

Question: What about the TGI (SF-268 CNS) of the same molecule?
Answer: The TGI was 3450 nM.

Question: What about the GI50 (MOLT-4 leukemia) of the same molecule?
Answer: Its GI50 is 1860 nM.

Question: And the TGI (MOLT-4 leukemia)?
Answer: Its TGI is 4700 nM.

Question: And the GI50 (MDA-MB-231 breast)?
Answer: Its GI50 is 1520 nM.

Question: And the TGI (MDA-MB-231 breast)?
Answer: Its TGI is 2890 nM.

Question: What about the GI50 (PC-3 prostate) of the same molecule?
Answer: Its GI50 is 1790 nM.

Question: What about the TGI (PC-3 prostate) of the same molecule?
Answer: The TGI was 4230 nM.

Question: What about the GI50 (RXF 393 renal) of the same molecule?
Answer: The GI50 was 1560 nM.

Question: What about the TGI (RXF 393 renal) of the same molecule?
Answer: The TGI was 2950 nM.

Question: And the GI50 (MALME-3M melanoma)?
Answer: The GI50 was 1610 nM.

Question: And the TGI (MALME-3M melanoma)?
Answer: Its TGI is 3030 nM.

Question: And the GI50 (HOP-92 NSCLC)?
Answer: Its GI50 is 1410 nM.

Question: And the TGI (HOP-92 NSCLC)?
Answer: The TGI was 2940 nM.

Question: What about the GI50 (A498 renal) of the same molecule?
Answer: Its GI50 is 1630 nM.

Question: And the TGI (A498 renal)?
Answer: Its TGI is 7140 nM.

Question: What about the GI50 (MDA-MB-435) of the same molecule?
Answer: Its GI50 is 1610 nM.

Question: What about the TGI (MDA-MB-435) of the same molecule?
Answer: The TGI was 3120 nM.

Question: What about the GI50 (NCI-H226 lung) of the same molecule?
Answer: Its GI50 is 2110 nM.

Question: And the TGI (NCI-H226 lung)?
Answer: The TGI was 5270 nM.

Question: And the GI50 (OVCAR-5 ovarian)?
Answer: The GI50 was 2170 nM.

Question: And the TGI (OVCAR-5 ovarian)?
Answer: The TGI was 5230 nM.

Question: And the GI50 (EKVX NSCLC)?
Answer: The GI50 was 1800 nM.

Question: What about the TGI (EKVX NSCLC) of the same molecule?
Answer: The TGI was 4160 nM.

Question: And the GI50 (DU-145 prostate)?
Answer: The GI50 was 1790 nM.

Question: What about the TGI (DU-145 prostate) of the same molecule?
Answer: The TGI was 3400 nM.

Question: And the GI50 (SF-295 CNS)?
Answer: The GI50 was 1810 nM.

Question: What about the TGI (SF-295 CNS) of the same molecule?
Answer: Its TGI is 3280 nM.

Question: What about the GI50 (MCF7 breast) of the same molecule?
Answer: Its GI50 is 1840 nM.

Question: What about the TGI (MCF7 breast) of the same molecule?
Answer: The TGI was 4040 nM.

Question: What about the GI50 (SNB-75 CNS) of the same molecule?
Answer: Its GI50 is 1420 nM.

Question: What about the TGI (SNB-75 CNS) of the same molecule?
Answer: The TGI was 3740 nM.

Question: What about the GI50 (SN12C renal) of the same molecule?
Answer: Its GI50 is 1600 nM.

Question: What about the TGI (SN12C renal) of the same molecule?
Answer: The TGI was 3050 nM.

Question: What about the GI50 (UACC-62 melanoma) of the same molecule?
Answer: Its GI50 is 1730 nM.

Question: What about the TGI (UACC-62 melanoma) of the same molecule?
Answer: The TGI was 3180 nM.

Question: And the GI50 (KM12 colon)?
Answer: The GI50 was 1720 nM.

Question: And the TGI (KM12 colon)?
Answer: Its TGI is 3460 nM.

Question: And the GI50 (NCI-H460 lung)?
Answer: Its GI50 is 1770 nM.

Question: What about the TGI (NCI-H460 lung) of the same molecule?
Answer: Its TGI is 3270 nM.

Question: What about the GI50 (COLO 205 colon) of the same molecule?
Answer: Its GI50 is 1800 nM.

Question: What about the TGI (COLO 205 colon) of the same molecule?
Answer: Its TGI is 4250 nM.

Question: And the GI50 (SR leukemia)?
Answer: Its GI50 is 1560 nM.

Question: What about the TGI (SR leukemia) of the same molecule?
Answer: The TGI was 3580 nM.

Question: What about the GI50 (M14 melanoma) of the same molecule?
Answer: Its GI50 is 1910 nM.

Question: And the TGI (M14 melanoma)?
Answer: The TGI was 4120 nM.

Question: What about the GI50 (A549 NSCLC) of the same molecule?
Answer: Its GI50 is 1730 nM.

Question: And the TGI (A549 NSCLC)?
Answer: Its TGI is 3530 nM.

Question: And the GI50 (BT-549 breast)?
Answer: Its GI50 is 1800 nM.

Question: What about the TGI (BT-549 breast) of the same molecule?
Answer: Its TGI is 3560 nM.

Question: What about the GI50 (IGROV1 ovarian) of the same molecule?
Answer: The GI50 was 1770 nM.

Question: What about the TGI (IGROV1 ovarian) of the same molecule?
Answer: The TGI was 3610 nM.

Question: What about the GI50 (ACHN renal) of the same molecule?
Answer: Its GI50 is 1700 nM.

Question: What about the TGI (ACHN renal) of the same molecule?
Answer: The TGI was 3110 nM.

Question: What about the GI50 (HCT-15 colon) of the same molecule?
Answer: The GI50 was 1910 nM.

Question: And the TGI (HCT-15 colon)?
Answer: Its TGI is 3750 nM.

Question: And the GI50 (HCC-2998 colon)?
Answer: The GI50 was 1800 nM.

Question: And the TGI (HCC-2998 colon)?
Answer: Its TGI is 3300 nM.

Question: What about the GI50 (OVCAR-4 ovarian) of the same molecule?
Answer: Its GI50 is 1710 nM.

Question: What about the TGI (OVCAR-4 ovarian) of the same molecule?
Answer: The TGI was 3730 nM.

Question: And the GI50 (NCI-H522 lung)?
Answer: Its GI50 is 1750 nM.

Question: And the TGI (NCI-H522 lung)?
Answer: Its TGI is 3620 nM.

Question: And the GI50 (T-47D breast)?
Answer: Its GI50 is 2120 nM.

Question: And the TGI (T-47D breast)?
Answer: The TGI was 6610 nM.

Question: And the GI50 (SF-539 CNS)?
Answer: The GI50 was 1710 nM.

Question: And the TGI (SF-539 CNS)?
Answer: The TGI was 3110 nM.

Question: What about the GI50 (SNB-19 CNS) of the same molecule?
Answer: The GI50 was 1640 nM.

Question: And the TGI (SNB-19 CNS)?
Answer: Its TGI is 3290 nM.

Question: And the GI50 (OVCAR-3 ovarian)?
Answer: Its GI50 is 1660 nM.

Question: What about the TGI (OVCAR-3 ovarian) of the same molecule?
Answer: Its TGI is 3140 nM.

Question: And the GI50 (SK-MEL-5 melanoma)?
Answer: Its GI50 is 1780 nM.

Question: What about the TGI (SK-MEL-5 melanoma) of the same molecule?
Answer: Its TGI is 3170 nM.

Question: What about the GI50 (LOX IMVI melanoma) of the same molecule?
Answer: The GI50 was 1760 nM.

Question: And the TGI (LOX IMVI melanoma)?
Answer: Its TGI is 3150 nM.

Question: What about the GI50 (TK-10 renal) of the same molecule?
Answer: Its GI50 is 1790 nM.

Question: And the TGI (TK-10 renal)?
Answer: The TGI was 3420 nM.

Question: And the GI50 (SW-620 colon)?
Answer: Its GI50 is 1660 nM.

Question: What about the TGI (SW-620 colon) of the same molecule?
Answer: Its TGI is 3160 nM.

Question: And the GI50 (CAKI-1 renal)?
Answer: Its GI50 is 1550 nM.

Question: What about the TGI (CAKI-1 renal) of the same molecule?
Answer: Its TGI is 3010 nM.

Question: And the GI50 (UACC-257 melanoma)?
Answer: Its GI50 is 1950 nM.

Question: What about the TGI (UACC-257 melanoma) of the same molecule?
Answer: The TGI was 3820 nM.

Reference: PubChem BioAssay (NCI)
